In the Deep4Chem optical property database:
Values belong to the compound of their own block, whether it stands above or below them.

Assay: solvent given as SMILES
[1] = in O=P(c1ccccc1)(c1ccccc1)c1ccccc1Oc1ccccc1P(=O)(c1ccccc1)c1ccccc1

Structure (SMILES): CCOC(=O)CN1C(=O)C2=C(c3ccc(C#N)cc3)N(CC(=O)OCC)C(=O)C2=C1c1ccc(C#N)cc1
- fluorescence lifetime (in CC#N): 6.67 ns
- fluorescence lifetime (in CS(C)=O): 6.5 ns
- fluorescence lifetime (in Cc1ccccc1): 6.48 ns

- fluorescence lifetime (in CC#N): 0.2 ns
Structure (SMILES): Cc1cccc(C)c1Nc1ccc(/C=C/c2ccc3ccccc3c2)cc1

- fluorescence lifetime (in CC#N): 0.0001 ns
Structure (SMILES): O=c1cc[nH]c(=O)[nH]1

Structure (SMILES): COc1nc(Nc2ccc3c4c(cccc24)C(=O)c2ccccc2-3)nc(OC)n1
- fluorescence lifetime (in CC#N): 9.2 ns
- fluorescence lifetime (in CC(C)=O): 8.5 ns
- fluorescence lifetime (in CC(C)O): 7.7 ns
- fluorescence lifetime (in CCCCOCCCC): 3.7 ns
- fluorescence lifetime (in CCOC(C)=O): 7.3 ns
- fluorescence lifetime (in CCOCC): 4.9 ns
- fluorescence lifetime (in CO): 7.4 ns
- fluorescence lifetime (in Cc1ccccc1): 5.6 ns
- fluorescence lifetime (in Clc1ccccc1): 7.4 ns
- fluorescence lifetime (in N#Cc1ccccc1): 7 ns
- fluorescence lifetime (in O=C1CCCCC1): 7.4 ns

Structure (SMILES): N#Cc1c(-n2c3ccccc3c3cc(Br)ccc32)c(-n2c3ccccc3c3cc(Br)ccc32)c(C#N)c(-n2c3ccccc3c3cc(Br)ccc32)c1-n1c2ccccc2c2cc(Br)ccc21
- fluorescence lifetime (in Cc1ccccc1): 0.4 ns

- fluorescence lifetime (in C1CCOC1): 2.33 ns
Structure (SMILES): CCN(CC)c1ccc(-c2nc3c(nc2-c2ccc(B(c4c(C)cc(C)cc4C)c4c(C)cc(C)cc4C)cc2)c2ccccc2n3C)cc1

Structure (SMILES): CC(C)(C)c1ccc2c(c1)c1cc(C(C)(C)C)ccc1n2-c1cccc(-n2c3ccc(C(C)(C)C)cc3c3cc(C(C)(C)C)ccc32)c1C#N
- fluorescence lifetime (in Cc1ccccc1): 5 ns
- fluorescence lifetime [1]: 6.8 ns

Structure (SMILES): Nc1ccc2c(c1)Cc1ccccc1-2
- fluorescence lifetime (in C1CCCCC1): 5.3 ns
- fluorescence lifetime (in CC#N): 3.2 ns
- fluorescence lifetime (in CO): 4.5 ns
- fluorescence lifetime (in O): 2.1 ns

Structure (SMILES): CCCCC(CC)CN1C(=O)c2cc(Oc3ccc(C(C)(C)C)cc3)c3c4c(Oc5ccc(OC)cc5)cc5c6c(cc(Oc7ccc(OC)cc7)c(c7c(Oc8ccc(C(C)(C)C)cc8)cc(c2c37)C1=O)c64)C(=O)N(c1c(C(C)C)cccc1C(C)C)C5=O (configuration not stated)
- fluorescence lifetime (in Cc1ccccc1): 5.25 ns

- fluorescence lifetime (in C1CCCCC1): 0.17 ns
Structure (SMILES): C(=C\c1nc2ccccc2s1)/c1ccccc1

- fluorescence lifetime (in CC#N): 0.89 ns
- fluorescence lifetime (in CO): 0.86 ns
Structure (SMILES): CC(C)CCCN1c2ccccc2CCc2ccccc21

- fluorescence lifetime (in O): 0.52 ns
Structure (SMILES): COc1cc2cc(-c3ccc(C(=O)OCOC(C)=O)cc3C(=O)OCOC(C)=O)oc2cc1N1CCOCCOCCN(c2cc3oc(-c4ccc(C(=O)OCOC(C)=O)cc4C(=O)OCOC(C)=O)cc3cc2OC)CCOCCOCC1

Structure (SMILES): CC1=C(c2cccs2)C(C)=[N+]2C1=C(c1ccccc1)c1c(C)c(-c3cccs3)c(C)n1[B-]2(F)F
- fluorescence lifetime (in Cc1ccccc1): 3.4 ns

- fluorescence lifetime (in ClCCl): 10.1 ns
Structure (SMILES): CCN(CC)c1ccc2cc(-c3ccc(-c4ccc(-c5cc6ccc(N(CC)CC)cc6oc5=O)cc4)cc3)c(=O)oc2c1

Structure (SMILES): CN(C)c1ccc(/C=C/c2ccc(-c3nnc(-c4ccc(-c5cc6ccccc6s5)cc4)o3)cc2)cc1
- fluorescence lifetime (in Cc1ccccc1): 0.52 ns
- fluorescence lifetime (in ClC(Cl)Cl): 0.53 ns

Structure (SMILES): O=P1(c2ccccc2)c2ccc(N3c4ccccc4Oc4ccccc43)cc2-c2cc(N3c4ccccc4Oc4ccccc43)ccc21
- fluorescence lifetime (in c1ccc2c(c1)c1ccccc1n2-c1ccc(-c2ccc(-n3c4ccccc4c4ccccc43)cc2)cc1): 35.1 ns

- fluorescence lifetime (in ClCCl): 0.27 ns
Structure (SMILES): O=[N+]([O-])c1ccc(C#Cc2ccc3ccc(C#Cc4ccc([N+](=O)[O-])cc4)cc3c2)cc1

Structure (SMILES): CC(C)c1cc(C(C)C)c(B2c3ccccc3Oc3cc(-n4c5ccccc5c5c6c(c7ccccc7n6-c6ccccc6)c6c(c7ccccc7n6-c6ccccc6)c54)ccc32)c(C(C)C)c1
- fluorescence lifetime (in CC(C)c1cc(C(C)C)c(-c2ccc(-n3c4ccccc4n4c5ccccc5nc34)nc2)c(C(C)C)c1): 23.1 ns
- fluorescence lifetime [1]: 24.7 ns

- fluorescence lifetime (in ClC(Cl)Cl): 11.6 ns
Structure (SMILES): CCCCCCN1C(=O)c2cccc3cc(/N=C\c4c[nH]c5c4ccc4ccccc45)cc(c23)C1=O

Structure (SMILES): Cc1cc(C)c2c(c1)c1cc(C)cc(C)c1n2-c1ccc2c(c1)Oc1cc3c(cc1B2c1c(C(C)C)cc(C(C)C)cc1C(C)C)B(c1c(C(C)C)cc(C(C)C)cc1C(C)C)c1ccccc1O3
- fluorescence lifetime (in Cc1ccccc1): 21 ns
- fluorescence lifetime (in O=P(c1ccccc1)(c1ccccc1)c1ccc2oc3ccc(P(=O)(c4ccccc4)c4ccccc4)cc3c2c1): 25 ns

- fluorescence lifetime (in C1CCCCC1): 0.75 ns
Structure (SMILES): CN(C)c1ccc(/C=C/C=C/C=C/c2ccc(B(O)O)cc2)cc1

- fluorescence lifetime (in ClCCl): 0.3 ns
Structure (SMILES): CCOC(=O)/N=c1/oc2c(OC)cccc2cc1C#N

- fluorescence lifetime (in ClC(Cl)Cl): 4.3 ns
Structure (SMILES): Cc1ccc(C2=C3C=CC4=[N+]3[P-](=O)(=O)n3c2ccc3-c2ccc([nH]2)/C(c2ccc(C)cc2)=c2/cc/c(o2)=C(\c2ccc(C)cc2)c2ccc4[nH]2)cc1

- fluorescence lifetime (in C1CCCCC1): 64 ns
Structure (SMILES): C[Si](C)(C)c1cccc2ccccc12

- fluorescence lifetime (in ClC(Cl)Cl): 13.7 ns
Structure (SMILES): CCCCCCN1C(=O)c2cccc3cc(/N=C\c4cnc5ccccc5c4)cc(c23)C1=O

- fluorescence lifetime (in CCO): 6.7 ns
Structure (SMILES): CCOc1ccc2c(-c3nc(-c4ccccc4)no3)cc(=O)oc2c1

- fluorescence lifetime (in C1CCCCC1): 0.85 ns
- fluorescence lifetime (in CC#N): 2.72 ns
- fluorescence lifetime (in CO): 5.38 ns
Structure (SMILES): Cc1cc2ccc(-c3cccc4cccc(-c5ccc6cc(C)c(=O)oc6c5)c34)cc2oc1=O

- fluorescence lifetime (in C1CCOC1): 1.6 ns
Structure (SMILES): CCC1(CC)c2cc(/C=C/c3cccs3)ccc2-c2c1c1c(c3c2C(CC)(CC)c2cc(/C=C/c4cccs4)ccc2-3)C(CC)(CC)c2cc(/C=C/c3cccs3)ccc2-1

Structure (SMILES): CCCCCCCCC1(CCCCCCCC)c2ccccc2-c2ccc(-c3nnc(-c4cccc(-n5c6ccc(C(C)(C)C)cc6c6cc(C(C)(C)C)ccc65)c4)o3)cc21
- fluorescence lifetime (in Cc1ccccc1): 7.65 ns

- fluorescence lifetime (in ClCCl): 6.87 ns
Structure (SMILES): COc1cc(OC)cc(C2=[O+][B-](F)(F)OC(c3ccccc3)=C2)c1

Structure (SMILES): CCCCC(CC)CN1C(=O)C2=C(c3ccc(-c4ccc(C5=C6C(C)=CC(C)=[N+]6[B-](F)(F)n6c(C)cc(C)c65)cc4)s3)N(CC(CC)CCCC)C(=O)C2=C1c1cccs1 (configuration not stated)
- fluorescence lifetime (in Cc1ccccc1): 3.87 ns

- fluorescence lifetime (in CCCCCC): 6.21 ns
- fluorescence lifetime (in CO): 6.34 ns
- fluorescence lifetime (in ClCCl): 5.89 ns
Structure (SMILES): CC1=CC(C)=[N+]2C1=Cc1cccn1[B-]2(F)F

Structure (SMILES): Cc1ccc2c(c1)C(=O)c1ccncc1-2
- fluorescence lifetime (in CC#N): 5.3 ns
- fluorescence lifetime (in CCOC(C)=O): 7.4 ns
- fluorescence lifetime (in Cc1ccccc1): 6.6 ns
- fluorescence lifetime (in ClCCl): 5.9 ns

- fluorescence lifetime (in ClCCl): 1.4 ns
Structure (SMILES): COc1ccc(-c2ccc3c(c2)[Si](C)(C)c2cc(-c4ccc(OC)cc4)ccc2C=C3)cc1

- fluorescence lifetime (in C1CCOC1): 0.5 ns
Structure (SMILES): N#Cc1ccc(/C=C/c2ccc(C=C(c3ccccc3)c3ccccc3)cc2)cc1

Structure (SMILES): CN(C)c1ccc(-c2c(/C=C3/C=Cc4ccccc4N3Cc3ccccc3)c(=O)c2=O)cc1
- fluorescence lifetime (in C1CCCCC1): 2.19 ns
- fluorescence lifetime (in Cc1ccccc1): 2.13 ns
- fluorescence lifetime (in ClCCl): 0.13 ns

- fluorescence lifetime (in ClC(Cl)Cl): 1.7 ns
Structure (SMILES): C(#Cc1ccc(C#Cc2ccc(C#Cc3ccccc3)cc2)cc1)c1ccccc1

Structure (SMILES): COc1ccc(C(=O)NN2C3=C(CC4=C2CCCC4=O)C(=O)CCC3)cc1
- fluorescence lifetime (in CC#N): 6.2 ns
- fluorescence lifetime (in CC(C)=O): 5.4 ns
- fluorescence lifetime (in CCCCCO): 6.1 ns
- fluorescence lifetime (in CO): 4.7 ns
- fluorescence lifetime (in ClC(Cl)Cl): 6.2 ns
- fluorescence lifetime (in ClCCl): 8.3 ns

- fluorescence lifetime (in ClCCl): 4.3 ns
Structure (SMILES): N#Cc1ccc(-n2c(-c3ccc(-c4ccc(-n5c6ccccc6c6ccccc65)cc4)s3)nc3c4ccccc4c4ccccc4c32)c2ccccc12

Structure (SMILES): Cc1ccc(-c2c3ccc([nH]3)c3nc(c(-c4ccc(C#N)cc4)c4ccc([nH]4)c4ccc([nH]4)c(-c4ccc(C)cc4)c4ccc2o4)C=C3)cc1
- fluorescence lifetime (in C1CCOC1): 5.26 ns
- fluorescence lifetime (in Cc1ccccc1): 4.39 ns
- fluorescence lifetime (in c1ccccc1): 5.94 ns

- fluorescence lifetime (in C1CCOC1): 4.4 ns
Structure (SMILES): C[Si](C)(C)c1ccc(-c2ccc(-c3ccc(-c4ccc(-c5ccc([Si](C)(C)C)s5)cc4)c4nsnc34)cc2)s1

- fluorescence lifetime (in C1CCOC1): 1.09 ns
- fluorescence lifetime (in CCCCCC): 8.42 ns
- fluorescence lifetime (in c1ccccc1): 8.55 ns
Structure (SMILES): O=C1OC(=O)c2ccc(N(c3ccccc3)c3ccc4ccccc4c3)c3cccc1c23

- fluorescence lifetime (in ClCCl): 2.44 ns
Structure (SMILES): COC(=O)c1[nH]c(-c2ccc([N+](=O)[O-])cc2)c2nnc3ccc(OC)cc3c12

Structure (SMILES): CC(C)(C)c1ccc2c(c1)c1cc(C(C)(C)C)ccc1n2-c1cc[n+]2c(c1)-c1ccccc1O[B-]2(F)F
- fluorescence lifetime [1]: 6.3 ns
